# Experimental data reported in US12649739B2, “Imidazoquinoline compound having anti-inflammatory, antifugal, antiparasitic, and anticancer activity” (PHARMA CINQ, LLC, priority 2020, dated 2026).
# Legend:
# C. neoformans = settings: in vitro, maximal inhibition
# [1] = tested on: A549 (lung cancer) cell line; test: Cell viability, WST-1 assay, A549 cells; format: cell-based; settings: 48 and 72 hours, WST-1, FIGS. 1 and 2
# [2] = tested on: PC3 (prostate cancer) cell line; test: Cell viability, WST-1 assay, PC3 cells; format: cell-based; settings: 48 and 72 hours, WST-1, FIGS. 3 and 4
# [3] = tested on: imiquimod-induced dermatitis; test: Imiquimod-induced psoriasiform dermatitis in mice, topical ointment; format: in vivo
Compound,inhibition of C. neoformans growth (ceiling) (C. neoformans),"doses reducing cancer cell viability, relative to those required for similar reductions by compound AF [1]","doses reducing cancer cell viability, relative to those required for similar reductions by compound AF [2]","ear thickness (caliper measurements) ([3]; female Balb/C mice, 0.01% ointment topically on ears, started day 5 of imiquimod, FIG. 5)","PASI scoring (erythema, thickening, scaling, cumulative) ([3]; female Balb/C mice, 0.01% ointment topically on ears, started day 5 of imiquimod, FIGS. 6A-D)",efficacy in model of psoriasiform dermatitis ([3]; ointment concentration of 0.01%)
CCN(CC)CCCC(C)Nc1ccnc2cc(Cl)ccc12 (stereo not drawn) [Chloroquine],about 40%,–,–,–,–,–
"c1ccc(Oc2cccc(Cc3nc4cnc5ccccc5c4[nH]3)c2)cc1 [Compound GE, 2-(3-Phenoxybenzyl)-1H-imidazo[4,5-c]quinoline]",–,approximately 1/10,approximately 1/10,reduced imiquimod-induced inflammatory damage to mouse ears,reducing all three aspects of dermal inflammation captured by the PASI scoring system,effective
